Measurements taken from patent US20130096170A1 (priority 2011, published 2013).
Like-named read-outs stand apart in the source and are kept apart here.

Tests used:
[1] = clinical; settings: human, plasma, intravenous, full evaluable population
[2] = clinical; settings: human, in vivo
[3] = cited from earlier work
[4] = Su et al. model, subject 7.7 months, 7 kg, total bypass time 57 minutes
[5] = noncompartmental analysis of the adult long-term use data
[6] = population PK of 4 pooled pediatric intensive care studies (1 week to 14 years)
[7] = typical subject, adult population PK analysis of long-term (>24 h) use

For `Cc1cccc([C@H](C)c2cnc[nH]2)c1C` [dexmedetomidine], the Cmax ([1]; Cmax Median, Dose Level 2, LD 0.50/CD 0.4 μg/kg/hr) was 0.581 ng/mL, the Cmax ([1]; Cmax Median, Dose Level 3, LD 1.00/CD 0.7 μg/kg/hr) was 0.966 ng/mL and the Cmax ([1]; Cmax Median, Dose Level 4, LD 1.00/CD 2.00 μg/kg/hr) was 2.69 ng/mL. For the same compound, the Cmax ([1]; Cmax, Table 30 key summary (mean), Dose Level 1, LD 0.25/CD 0.2 μg/kg/hr) was 0.48 ng/mL, the Cmax ([1]; Cmax, Table 30 key summary (mean), Dose Level 2, LD 0.50/CD 0.4 μg/kg/hr) was 0.848 ng/mL and the Cmax ([1]; Cmax, Table 30 key summary (mean), Dose Level 3, LD 1.00/CD 0.7 μg/kg/hr) was 3.39 ng/mL. The Cmax ([1]; Cmax, Table 30 key summary (mean), Dose Level 4, LD 1.00/CD 2.00 μg/kg/hr) was 3.09 ng/mL, the Tmax ([1]; Tmax Mean, Dose Level 1, LD 0.25/CD 0.2 μg/kg/hr) was 7.31 h and the Tmax ([1]; Tmax Mean, Dose Level 2, LD 0.50/CD 0.4 μg/kg/hr) was 8.8 h. It also gave a Tmax ([1]; Tmax Mean, Dose Level 3, LD 1.00/CD 0.7 μg/kg/hr) of 2.17 h, a Tmax ([1]; Tmax Mean, Dose Level 4, LD 1.00/CD 2.00 μg/kg/hr) of 6.82 h and a Tmax ([1]; Tmax Median, Dose Level 1, LD 0.25/CD 0.2 μg/kg/hr) of 6.04 h. The Tmax ([1]; Tmax Median, Dose Level 2, LD 0.50/CD 0.4 μg/kg/hr) was 5.68 h, the Tmax ([1]; Tmax Median, Dose Level 3, LD 1.00/CD 0.7 μg/kg/hr) was 0.367 h and the Tmax ([1]; Tmax Median, Dose Level 4, LD 1.00/CD 2.00 μg/kg/hr) was 5.42 h. For the same compound, the Vd ([1]; Vd Mean, Dose Level 1, LD 0.25/CD 0.2 μg/kg/hr) was 62 L, the Vd ([1]; Vd Mean, Dose Level 2, LD 0.50/CD 0.4 μg/kg/hr) was 50.6 L and the Vd ([1]; Vd Mean, Dose Level 3, LD 1.00/CD 0.7 μg/kg/hr) was 52.3 L. It also gave a Vd ([1]; Vd Mean, Dose Level 4, LD 1.00/CD 2.00 μg/kg/hr) of 62.2 L, a Vd ([1]; Vd Median, Dose Level 2, LD 0.50/CD 0.4 μg/kg/hr) of 40.7 L and a Vd ([1]; Vd Median, Dose Level 3, LD 1.00/CD 0.7 μg/kg/hr) of 51.3 L. The Vd ([1]; Vd Median, Dose Level 4, LD 1.00/CD 2.00 μg/kg/hr) was 57.8 L, the Vd ([1]; Vd, Table 30 key summary (mean), Dose Level 1, LD 0.25/CD 0.2 μg/kg/hr) was 62 L and the Vd ([1]; Vd, Table 30 key summary (mean), Dose Level 2, LD 0.50/CD 0.4 μg/kg/hr) was 50.6 L. For the same compound, the Vd ([1]; Vd, Table 30 key summary (mean), Dose Level 3, LD 1.00/CD 0.7 μg/kg/hr) was 52.3 L, the Vd ([1]; Vd, Table 30 key summary (mean), Dose Level 4, LD 1.00/CD 2.00 μg/kg/hr) was 62.2 L and the Vd ([1]; Vss Mean, Dose Level 1, LD 0.25/CD 0.2 μg/kg/hr) was 56.8 L. The Vd ([1]; Vss Mean, Dose Level 3, LD 1.00/CD 0.7 μg/kg/hr) was 32.8 L, the Vd ([1]; Vss Mean, Dose Level 4, LD 1.00/CD 2.00 μg/kg/hr) was 43.7 L and the Vd ([1]; Vss Median, Dose Level 1, LD 0.25/CD 0.2 μg/kg/hr) was 40.3 L. The Vd ([1]; Vss Median, Dose Level 2, LD 0.50/CD 0.4 μg/kg/hr) was 30.6 L, the Vd ([1]; Vss Median, Dose Level 3, LD 1.00/CD 0.7 μg/kg/hr) was 30.4 L and the Vd ([1]; Vss Median, Dose Level 4, LD 1.00/CD 2.00 μg/kg/hr) was 33.1 L. It also gave a clearance ([1]; Weight-adjusted CL Mean, Dose Level 1, LD 0.25/CD 0.2 μg/kg/hr) of 17.3 mL/min/kg, a clearance ([1]; Weight-adjusted CL Mean, Dose Level 2, LD 0.50/CD 0.4 μg/kg/hr) of 15.7 mL/min/kg and a clearance ([1]; Weight-adjusted CL Mean, Dose Level 3, LD 1.00/CD 0.7 μg/kg/hr) of 14 mL/min/kg. For the same compound, the clearance ([1]; Weight-adjusted CL Mean, Dose Level 4, LD 1.00/CD 2.00 μg/kg/hr) was 14.2 mL/min/kg, the clearance ([1]; Weight-adjusted CL Median, Dose Level 1, LD 0.25/CD 0.2 μg/kg/hr) was 19.9 mL/min/kg and the clearance ([1]; Weight-adjusted CL Median, Dose Level 2, LD 0.50/CD 0.4 μg/kg/hr) was 14.7 mL/min/kg. For the same compound, the clearance ([1]; Weight-adjusted CL Median, Dose Level 3, LD 1.00/CD 0.7 μg/kg/hr) was 14.7 mL/min/kg, the clearance ([1]; Weight-adjusted CL Median, Dose Level 4, LD 1.00/CD 2.00 μg/kg/hr) was 13.4 mL/min/kg and the clearance ([1]; Weight-adjusted CL, Table 30 key summary (mean), Dose Level 1, LD 0.25/CD 0.2 μg/kg/hr) was 16.7 mL/min/kg. It also gave a clearance ([1]; Weight-adjusted CL, Table 30 key summary (mean), Dose Level 2, LD 0.50/CD 0.4 μg/kg/hr) of 15 mL/min/kg, a clearance ([1]; Weight-adjusted CL, Table 30 key summary (mean), Dose Level 3, LD 1.00/CD 0.7 μg/kg/hr) of 13.3 mL/min/kg and a clearance ([1]; Weight-adjusted CL, Table 30 key summary (mean), Dose Level 4, LD 1.00/CD 2.00 μg/kg/hr) of 13.3 mL/min/kg. For the same compound, the Vd ([1]; Weight-adjusted Vd Mean, Dose Level 1, LD 0.25/CD 0.2 μg/kg/hr) was 2.17 L/kg, the Vd ([1]; Weight-adjusted Vd Mean, Dose Level 2, LD 0.50/CD 0.4 μg/kg/hr) was 2.31 L/kg and the Vd ([1]; Weight-adjusted Vd Mean, Dose Level 3, LD 1.00/CD 0.7 μg/kg/hr) was 2.44 L/kg. The Vd ([1]; Weight-adjusted Vd Mean, Dose Level 4, LD 1.00/CD 2.00 μg/kg/hr) was 2.48 L/kg, the Vd ([1]; Weight-adjusted Vd Median, Dose Level 1, LD 0.25/CD 0.2 μg/kg/hr) was 2.43 L/kg and the Vd ([1]; Weight-adjusted Vd Median, Dose Level 2, LD 0.50/CD 0.4 μg/kg/hr) was 2.49 L/kg. The Vd ([1]; Weight-adjusted Vd Median, Dose Level 3, LD 1.00/CD 0.7 μg/kg/hr) was 2.19 L/kg, the Vd ([1]; Weight-adjusted Vd Median, Dose Level 4, LD 1.00/CD 2.00 μg/kg/hr) was 2.15 L/kg and the Vd ([1]; Weight-adjusted Vd, Table 30 key summary (mean), Dose Level 1, LD 0.25/CD 0.2 μg/kg/hr) was 2.2 L/kg. The Vd ([1]; Weight-adjusted Vd, Table 30 key summary (mean), Dose Level 2, LD 0.50/CD 0.4 μg/kg/hr) was 2.3 L/kg, the Vd ([1]; Weight-adjusted Vd, Table 30 key summary (mean), Dose Level 3, LD 1.00/CD 0.7 μg/kg/hr) was 2.4 L/kg and the Vd ([1]; Weight-adjusted Vd, Table 30 key summary (mean), Dose Level 4, LD 1.00/CD 2.00 μg/kg/hr) was 2.5 L/kg. It also gave a half-life ([1]; t1/2, Table 30 key summary (mean), Dose Level 1, LD 0.25/CD 0.2 μg/kg/hr) of 90 min, a half-life ([1]; t1/2, Table 30 key summary (mean), Dose Level 2, LD 0.50/CD 0.4 μg/kg/hr) of 102 min and a half-life ([1]; t1/2, Table 30 key summary (mean), Dose Level 3, LD 1.00/CD 0.7 μg/kg/hr) of 120 min. For the same compound, the half-life ([1]; t1/2, Table 30 key summary (mean), Dose Level 4, LD 1.00/CD 2.00 μg/kg/hr) was 126 min, the half-life ([1]; t1/2 Mean, Dose Level 1, LD 0.25/CD 0.2 μg/kg/hr) was 92.8 min and the half-life ([1]; t1/2 Mean, Dose Level 2, LD 0.50/CD 0.4 μg/kg/hr) was 105 min. The half-life ([1]; t1/2 Mean, Dose Level 3, LD 1.00/CD 0.7 μg/kg/hr) was 123 min, the half-life ([1]; t1/2 Mean, Dose Level 4, LD 1.00/CD 2.00 μg/kg/hr) was 129 min and the half-life ([1]; t1/2 Median, Dose Level 1, LD 0.25/CD 0.2 μg/kg/hr) was 93.4 min. The half-life ([1]; t1/2 Median, Dose Level 2, LD 0.50/CD 0.4 μg/kg/hr) was 101 min, the half-life ([1]; t1/2 Median, Dose Level 3, LD 1.00/CD 0.7 μg/kg/hr) was 108 min and the half-life ([1]; t1/2 Median, Dose Level 4, LD 1.00/CD 2.00 μg/kg/hr) was 128 min. For the same compound, the clearance ([2]; Cl Mean) was 171 mL/min, the clearance ([2]; Cl Median) was 162 mL/min and the Vd ([2]; Vd Mean) was 30.5 L. The Vd ([2]; Vd Median) was 29.1 L, the half-life ([2]; apparent (mean) t1/2) was 140 min and the half-life ([2]; t1/2, Mean) was 140 min. The half-life ([2]; t1/2 Median) was 112 min, the CL [3, 4] was 7.26 L/h and the Q [3, 4] was 24.1 L/h. For the same compound, the Vc [3, 4] was 8.4 L, the Vp [3, 4] was 10.2 L and the CL [3, 5] was 39.4 L/h. For the same compound, the volume of distribution [3, 5] was 152 L, the “CL standardized to a 70-kg adult” value [3, 6] was 42.1 L/h and the “volume of distribution standardized to a 70-kg adult” value [3, 6] was 125.3 L. For the same compound, the volume of distribution ([3]; product label for Precedex) was 118 L, the CL ([3]; product label for Precedex, mean body weight 72 kg) was 39 L/h and the CL [3, 7] was 35.8 L/h. The volume of distribution [3, 7] was 112.7 L.
